In ChEMBL document CHEMBL1152022, “Double-headed molecules based on linear or angular psoralen and -methylene--butyrolactone: a search for non-phototoxic potential antiproliferative compounds” (Bioorg Med Chem Lett, 1993):
Active and inactive are the calls of the source. The calls are words filed in the database; no cut-off is given here.

Experiments:
Assay type in all cases: functional, organism-based
Mus musculus [1] = organism: Mus musculus; assay: Phototoxicity was evaluated at a concentration of 1.4 mM and with an irradiation dose of 6 J/cm**2 in mouse ear-swelling test; non-phototoxic
Mus musculus [2] = organism: Mus musculus; assay: Phototoxicity was evaluated at a concentration of 27.7 mM at a UVA dose of 12 J/cm**2 in mouse ear-swelling test; non-phototoxic
Mus musculus [3] = organism: Mus musculus; assay: Phototoxicity was evaluated at a concentration of 1.4 mM and with an irradiation dose of 6 J/cm**2 in mouse ear-swelling test; induced marked erythema.
Mus musculus [4] = organism: Mus musculus; assay: Phototoxicity was evaluated at a concentration of 13.9 mM and a UVA dose of 10 J/cm**2 in mouse ear-swelling test; non-phototoxic

C=C1CC(CCCCCCCCCCOc2c3ccoc3cc3oc(=O)ccc23)OC1=O (centres undefined)
Phototoxicity (Mus musculus [1]): Not toxic | Phototoxicity (Mus musculus [2]): Not toxic

COc1c2ccoc2cc2oc(=O)ccc12
Phototoxicity (Mus musculus [3]): Active

C=C1CC(CCCCCCCCCCc2cc3c(ccc4ccc(=O)oc43)o2)OC1=O (centres undefined)
Phototoxicity (Mus musculus [4]): Not toxic
